# Results taken from patent US10030016B2 (Sunesis Pharmaceuticals, Inc., priority 2009, dated 2018).
# Counter-ions that a name gives are not always drawn. Like-named read-outs stand apart in the source and are kept apart here.
# What was measured:
# PDK1 = PDK1 (Homo sapiens (Human), UniProt O15530); assay: PDK1 kinase assay (coupled PDK1/AKT/FAM-crosstide assay, IMAP fluorescence polarization); format: biochemical
# Method in brief: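 Coupled cascade: 0.75 nM PDK1 (51-359) → 10 nM AKT2 (140-467-PIFtide) → 100 nM FAM-crosstide. ATP 40 μM, 25° C, 30 min. IMAP FP (ex 485/em 530), 2 h binding. ΔmP vs conc, 4-param fit.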
# [1] = system: phospho-akt (Thr308) in PC-3 cells; assay: Inhibition of phospho-akt (Thr308) in PC-3 cells, MSD phospho-akt 308 ELISA kit; format: cell-based; details: Homo sapiens, 2 hours, no serum, read-out: EC50
# Method in brief: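 Serum-free 2 h compound exposure of overnight-seeded PC-3 cells, threefold dilution series; lysates analysed on blocked MSD plates (3% BSA) for Thr308-phosphorylated Akt, normalised between DMSO and 5 μM wortmannin wells.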
# [2] = inhibition of phospo-PDK1 in vitro
# [3] = inhibition of P308 Akt in PC-3 cells, MSD
# [4] = inhibition of P308 Akt in PC-3 cells using MSD
# [5] = PC-3, 2 h, inhibition of P308 Akt in PC-3 cells, MSD
# Sequence of PDK1 (O15530 51-359): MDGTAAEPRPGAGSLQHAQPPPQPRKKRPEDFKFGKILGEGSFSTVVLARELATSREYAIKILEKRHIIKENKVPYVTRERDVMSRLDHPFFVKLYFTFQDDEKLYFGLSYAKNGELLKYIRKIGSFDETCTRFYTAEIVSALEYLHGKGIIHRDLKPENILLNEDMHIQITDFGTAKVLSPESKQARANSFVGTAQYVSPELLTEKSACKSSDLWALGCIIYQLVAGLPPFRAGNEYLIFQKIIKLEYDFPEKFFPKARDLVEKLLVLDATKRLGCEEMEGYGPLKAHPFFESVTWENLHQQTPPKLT
Structure (SMILES),IC50 (PDK1; [2]),"EC50 [1, 3]",IC50 (PDK1; inhibition of PDK1 in vitro),"EC50 [1, 4]","EC50 [1, 5]"
"C[C@H](NC(=O)c1cccnc1NCc1ccc(-c2cc3c(cn2)nc(N)n3C)s1)c1ccc(F)cc1 [Example 2.23, (S)-2-(((5-(2-amino-1-methyl-1H-imidazo[4,5-c]pyridin-6-yl)thiophen-2-yl)methyl)amino)-N-(1-(4-fluorophenyl)ethyl) nicotinamide]",1000 to 5000 nM,> 10000 nM,–,–,–
"CNS(=O)(=O)c1cnc(NCc2ccc(-c3ccc4ncnc(N)c4c3)s2)c(C(=O)N[C@@H](C)c2ccc(F)cc2)c1 [Example 8.7.7, 2-({[5-(4-aminoquinazolin-6-yl)thiophen-2-yl]methyl}amino)-N-[(1S)-1-(4-fluorophenyl)ethyl]-5-(methylsulfamoyl) pyridine-3-carboxamide]",100 to 1000 nM,1000 to 10000 nM,–,–,–
"Nc1n[nH]c2ncc(-c3ccc(CNc4ncc(C(F)(F)F)cc4C(=O)NCC4CCCC4)cc3)cc12 [Example 264, 2-(4-(3-amino-1H-pyrazolo [3,4-b]pyridin-5-yl)benzylamino)-N-(cyclopentylmethyl)-5-(trifluoromethyl) nicotinamide]",–,–,< 100 nM,1000 to 10000 nM,–
"C[C@H](NC(=O)c1cccnc1NCc1ccc(-c2cnc3[nH]ncc3c2)cc1)c1ccc(F)cc1 [Example 392, N-[(S)-1-(4-Fluoro-phenyl)-ethyl]-2-[4-(1H-pyrazolo [3,4-b]pyridin-5-yl)-benzylamino]-nicotinamide]",–,–,< 100 nM,1000 to 10000 nM,–
"CN(C)CCCNC(=O)c1cnc(NCc2ccc(-c3ccc4ncnc(N)c4c3)s2)c(C(=O)NCc2ccc(F)c(F)c2)c1 [Example 7.24.5, 2-({[5-(4-aminoquinazolin-6-yl)thiophen-2-yl]methyl}amino)-N^3-(3,4-difluorobenzyl)-N^5-[3-(dimethylamino)propyl] pyridine-3,5-dicarboxamide]",100 to 1000 nM,> 10000 nM,–,–,–
"C[C@H](NC(=O)c1cc(C(F)(F)F)cnc1NCc1ccc(-c2ccc3ncc4ncn(C)c4c3c2)s1)c1ccc(F)c(F)c1 [Example 2.27, (S)-5-trifluoromethyl-N-(1-(3,4-difluorophenyl)ethyl)-2-(((5-(1-methyl-1H-imidazo[4,5-c]quinolin-8-yl)thiophen-2-yl)methyl)amino)nicotinamide]",< 100 nM,< 1000 nM,–,–,–
"Nc1ncnc2ccc(-c3ccc(CNc4ncc(S(=O)(=O)NCc5ccccc5)cc4C(=O)NCc4ccc(F)c(F)c4)s3)cc12 [Example 8.6.7, 2-(((5-(4-aminoquinazolin-6-yl)thiophen-2-yl)methyl)amino)-5-(N-benzylsulfamoyl)-N-(3,4-difluorobenzyl) nicotinamide]",100 to 1000 nM,> 10000 nM,–,–,–
"C[C@H](NC(=O)c1cc(C#N)cnc1NCc1ccc(-c2cnc(N)cn2)c(F)c1)c1ccc(F)cc1 [Example 131, (S)-2-(4-(5-aminopyrazin-2-yl)-3-fluorobenzylamino)-5-cyano-N-(1-(4-fluorophenyl)ethyl) nicotinamide]",–,–,< 100 nM,1000 to 10000 nM,–
"NCCCc1nc(-c2ccc(CNc3ncc(C(F)(F)F)cc3C(=O)Nc3ccc(F)cc3)cc2)cnc1N [Example 73, 2-{4-[5-Amino-6-(3-amino-propyl)-pyrazin-2-yl]-benzyl-amino}-N-(4-fluoro-phenyl)-5-trifluoromethyl-nicotinamide]",–,–,< 100 nM,< 1000 nM,–
"C[C@H](NC(=O)c1cc(C#N)cnc1NCc1ccc(-c2cnc(N)c(C(=O)O)n2)cc1)c1ccc(F)cc1 [Example 207, (S)-3-amino-6-(4-((5-cyano-3-(1-(4-fluorophenyl)ethylcarbamoyl)pyridin-2-ylamino)methyl)phenyl)-pyrazine-2-carboxylic acid]",–,–,< 100 nM,> 10000 nM,–
"C[C@H](NC(=O)c1cc(C(F)(F)F)cnc1NCc1ccc(-c2cc3c(N)ncnc3cn2)s1)c1ccc(F)c(F)c1 [Example 8.12.8, 2-({[5-(4-aminopyrido [3,4-d]pyrimidin-6-yl)thiophen-2-yl]methyl}amino)-N-[(1S)-1-(3,4-difluorophenyl)ethyl]-5-(trifluoromethyl) pyridine-3-carboxamide]",100 to 1000 nM,1000 to 10000 nM,–,–,–
"COc1cc(F)ccc1NC(=O)c1cc(C(F)(F)F)cnc1NCc1ccc(-c2cnc3[nH]nc(N)c3c2)cc1 [Example 261, 2-(4-(3-amino-1H-pyrazolo [3,4-b]pyridin-5-yl)benzylamino)-N-(4-fluoro-2-methoxyphenyl)-5-(trifluoromethyl)nicotinamide]",–,–,< 100 nM,1000 to 10000 nM,–
"C[C@H](NC(=O)c1nc(C#N)cnc1NCc1ccc(-c2cnc3[nH]nc(N)c3c2)nc1)c1ccc(F)c(F)c1 [Example 58, (S)-3-(((6-(3-amino-1H-pyrazolo[3,4-b]pyridin-5-yl)pyridin-3-yl)methyl)amino)-6-cyano-N-(1-(3,4-difluorophenyl)ethyl) pyrazine-2-carboxamide]",–,–,< 100 nM,< 1000 nM,–
"Nc1n[nH]c2ncc(-c3ccc(CNc4ncc(C(F)(F)F)cc4C(=O)NCCC4CC4)cc3)cc12 [Example 269, 2-(4-(3-amino-1H-pyrazolo [3,4-b]pyridin-5-yl)benzylamino)-N-(2-cyclopropylethyl)-5-(trifluoromethyl) nicotinamide]",–,–,< 100 nM,1000 to 10000 nM,–
"Nc1n[nH]c2ncc(-c3ccc(CNc4ncc(C(F)(F)F)cc4-c4nc5cc(F)ccc5[nH]4)cc3)cc12 [Example 349, 5-(4-((3-(5-fluoro-1H-benzo[d]imidazol-2-yl)-5-(trifluoromethyl)pyridin-2-ylamino)methyl)phenyl)-1H-pyrazolo[3,4-b] pyridin-3-amine]",–,–,> 5000 nM,> 10000 nM,–
"C[C@H](NC(=O)c1cc(C(F)(F)F)cnc1NCc1ccc(-c2cnc3[nH]c(=O)[nH]c3c2)cc1)c1ccc(F)c(F)c1 [Example 362, (S)-N-(1-(3,4-difluorophenyl)ethyl)-2-(4-(2-oxo-2,3-dihydro-1H-imidazo[4,5-b]pyridin-6-yl)benzylamino)-5-(trifluoromethyl)nicotinamide]",–,–,< 100 nM,< 1000 nM,–
"Nc1ncnc2ccc(-c3ccc(CNc4ncc(Cl)cc4C(=O)NCc4ccc(F)c(F)c4)s3)cc12 [Example 8.12.3, 2-({[5-(4-aminoquinazolin-6-yl)thiophen-2-yl]methyl}amino)-5-chloro-N-(3,4-difluorobenzyl)pyridine-3-carboxamide]",1000 to 5000 nM,1000 to 10000 nM,–,–,–

# Other lines, results leading:
IC50 (PDK1; [2]),"EC50 [1, 3]",IC50 (PDK1; inhibition of PDK1 in vitro),"EC50 [1, 4]","EC50 [1, 5]",Structure (SMILES)
< 100 nM,< 1000 nM,–,–,–,"C[C@H](NC(=O)c1nccnc1NC/C=C/c1ccc2c(c1)NC(=O)/C2=C\c1cnc[nH]1)c1ccc(F)cc1 [Example 15.20, 3-((E)-3-((Z)-3-((1H-imidazol-5-yl)methylene)-2-oxoindolin-6-yl)allylamino)-N-((S)-1-(4-fluorophenyl)ethyl) pyrazine-2-carboxamide]"
< 100 nM,1000 to 10000 nM,–,–,–,"O=C(NCc1ccc(F)c(F)c1)c1cccnc1NCc1ccc(-c2ccc3ncnc(N4CCC4)c3c2)s1 [Example 4.9, 2-(((5-(4-(azetidin-1-yl)quinazolin-6-yl)thiophen-2-yl)methyl)amino)-N-(3,4-difluorobenzyl)nicotinamide]"
1000 to 5000 nM,> 10000 nM,–,–,–,C[C@H](NC(=O)c1cnccc1NCc1ccc(-c2ccc3ncnc(N)c3c2)s1)c1ccc(F)c(F)c1 [Example 3.86]
100 to 1000 nM,–,–,–,< 1000 nM,"C[C@H](NC(=O)c1nccnc1NCc1ccc(-c2cc3c(N)ncnc3cn2)s1)c1ccc(F)cc1 [Example 3.79, 3-({[5-(4-aminopyrido[3,4-d]pyrimidin-6-yl)thiophen-2-yl]methyl}amino)-N-[(1S)-1-(4-fluorophenyl)ethyl] pyrazine-2-carboxamide (TFA salt)]"
< 100 nM,< 1000 nM,–,–,–,"Cc1[nH]c(/C=C2\C(=O)Nc3cc(/C=C/CNc4ncccc4C(=O)NCc4ccc(F)c(F)c4)ccc32)c(C)c1C(=O)N1CCOCC1 [Example 15.18, N-(3,4-Difluoro-benzyl)-2-((E)-3-{3-[1-[3,5-dimethyl-4-(morpholine-4-carbonyl)-1H-pyrrol-2-yl]-meth-(Z)-ylidene]-2-oxo-2,3-dihydro-1H-indol-6-yl}-allylamino)-nicotinamide]"
1000 to 5000 nM,–,–,–,> 10000 nM,"Nc1ncnc2ccc(-c3ccc(CNc4ncccc4C(=O)NCc4ccc(C(F)(F)F)o4)s3)cc12 [Example 3.28, 2-({[5-(4-aminoquinazolin-6-yl)thiophen-2-yl]methyl}amino)-N-{[5-(trifluoromethyl)furan-2-yl]methyl}pyridine-3-carboxamide (bis TFA salt)]"
100 to 1000 nM,1000 to 10000 nM,–,–,–,"Nc1ncnc2ccc(-c3ccc(CNc4nccc5c4C(=O)N(Cc4ccc(F)c(F)c4)C5)s3)cc12 [Ex. 7.19, 4-({[5-(4-aminoquinazolin-6-yl)thiophen-2-yl]methyl}amino)-2-(3,4-difluorobenzyl)-1,2-dihydro-3H-pyrrole[3,4-c]pyridin-3-one]"
< 100 nM,1000 to 10000 nM,–,–,–,"C[C@H](NC(=O)c1cccnc1NCc1ccc(-c2ccc3ncnc(NC4CNC4)c3c2)s1)c1ccc(F)c(F)c1 [Example 4.36, 2-({5-[4-(Azetidin-3-ylamino)-quinazolin-6-yl]-thiophen-2-ylmethyl}-amino)-N-[(S)-1-(3,4-difluoro-phenyl)-ethyl]-nicotinamide]"
< 100 nM,1000 to 10000 nM,–,–,–,"C[C@H](NC(=O)c1nccnc1NCc1ccc(-c2ccc3ncnc(N)c3c2)s1)c1ccc(F)cc1 [Example 3.70, 3-({[5-(4-aminoquinazolin-6-yl)thiophen-2-yl]methyl}amino)-N-[(1S)-1-(4-fluorophenyl)ethyl] pyrazine-2-carboxamide (TFA salt)]"
